We go through two compounds from article PMC11792023, “PNPO‐Mediated Oxidation of DVL3 Promotes Multiple Myeloma Malignancy and Osteoclastogenesis by Activating the Wnt/β‐Catenin Pathway” (Advanced Science, 2024).

Experiment [1] concerns the target T1, PNPO (pyridoxine-5'-phosphate oxidase) (Homo sapiens, UniProt Q9NVS9).
T1 construct: PNPO WT, 6×His tag (pet-28a)
T1 sequence (Q9NVS9 1-261): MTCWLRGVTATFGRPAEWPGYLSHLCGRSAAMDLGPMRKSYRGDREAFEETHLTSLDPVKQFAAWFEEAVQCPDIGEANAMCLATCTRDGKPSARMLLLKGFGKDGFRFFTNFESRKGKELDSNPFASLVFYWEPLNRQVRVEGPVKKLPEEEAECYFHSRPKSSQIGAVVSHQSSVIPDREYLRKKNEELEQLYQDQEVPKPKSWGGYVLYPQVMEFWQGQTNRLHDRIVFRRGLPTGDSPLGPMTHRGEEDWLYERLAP
Description: microscale thermophoresis (MST); also HuProt […] proteome microarray with FITC-labelled celastrol. Format: binding.

Experiment [2] has as its target T1, PNPO (pyridoxine-5'-phosphate oxidase). Description: microscale thermophoresis (MST) with RED-NHS-labelled purified protein. Format: binding.

Each structure is given as a SMILES string.

`CC1=C(O)C(=O)C=C2C1=CC=C1[C@@]2(C)CC[C@@]2(C)[C@@H]3C[C@](C)(C(=O)O)CC[C@]3(C)CC[C@]12C` [celastrol]: the “microscale thermophoresis (MST); also HuProt 20K proteome microarray with FITC-l” value in experiment [1] was “MST analysis confirmed a direct interaction between celastrol and PNPO”.

In turn, `CC1=NN(c2ccc(C)c(C)c2)C(=O)/C1=N\Nc1cccc(-c2cccc(C(=O)O)c2)c1O` [Eltrombopag] returned a Kd in experiment [2] of 180 ± 90 nM.
